{"source": "PubChem BioAssay (NCI)", "assay_in_all_cases": "growth of human tumour cells (NCI), 48 h", "key": {"RXF-631 renal": {"tested_on": "RXF-631 renal"}, "SR leukemia": {"tested_on": "SR leukemia"}, "NCI-H226 lung": {"tested_on": "NCI-H226 lung"}, "NCI-H522 lung": {"tested_on": "NCI-H522 lung"}, "786-0 renal": {"tested_on": "786-0 renal"}, "K-562 leukemia": {"tested_on": "K-562 leukemia"}, "HOP-62 NSCLC": {"tested_on": "HOP-62 NSCLC"}, "UO-31 renal": {"tested_on": "UO-31 renal"}, "SNB-19 CNS": {"tested_on": "SNB-19 CNS"}, "SN12C renal": {"tested_on": "SN12C renal"}, "UACC-257 melanoma": {"tested_on": "UACC-257 melanoma"}, "ACHN renal": {"tested_on": "ACHN renal"}, "NCI-H23 lung": {"tested_on": "NCI-H23 lung"}, "U251 CNS": {"tested_on": "U251 CNS"}, "HCT-116 colon": {"tested_on": "HCT-116 colon"}, "MOLT-4 leukemia": {"tested_on": "MOLT-4 leukemia"}, "KM12 colon": {"tested_on": "KM12 colon"}, "RPMI-8226 leukemia": {"tested_on": "RPMI-8226 leukemia"}, "SW-620 colon": {"tested_on": "SW-620 colon"}, "SF-268 CNS": {"tested_on": "SF-268 CNS"}, "HCC-2998 colon": {"tested_on": "HCC-2998 colon"}, "SK-MEL-5 melanoma": {"tested_on": "SK-MEL-5 melanoma"}, "CAKI-1 renal": {"tested_on": "CAKI-1 renal"}, "OVCAR-8 ovarian": {"tested_on": "OVCAR-8 ovarian"}, "SK-MEL-28 melanoma": {"tested_on": "SK-MEL-28 melanoma"}, "SK-OV-3 ovarian": {"tested_on": "SK-OV-3 ovarian"}, "A549 NSCLC": {"tested_on": "A549 NSCLC"}, "LOX IMVI melanoma": {"tested_on": "LOX IMVI melanoma"}, "RXF 393 renal": {"tested_on": "RXF 393 renal"}, "SK-MEL-2 melanoma": {"tested_on": "SK-MEL-2 melanoma"}, "M19-MEL melanoma": {"tested_on": "M19-MEL melanoma"}, "DMS 273 small cell lung": {"tested_on": "DMS 273 small cell lung"}, "HCT-15 colon": {"tested_on": "HCT-15 colon"}, "COLO 205 colon": {"tested_on": "COLO 205 colon"}, "HOP-18 NSCLC": {"tested_on": "HOP-18 NSCLC"}, "EKVX NSCLC": {"tested_on": "EKVX NSCLC"}, "HOP-92 NSCLC": {"tested_on": "HOP-92 NSCLC"}, "TK-10 renal": {"tested_on": "TK-10 renal"}, "NCI-H460 lung": {"tested_on": "NCI-H460 lung"}, "UACC-62 melanoma": {"tested_on": "UACC-62 melanoma"}, "OVCAR-3 ovarian": {"tested_on": "OVCAR-3 ovarian"}, "CCRF-CEM leukemia": {"tested_on": "CCRF-CEM leukemia"}, "OVCAR-5 ovarian": {"tested_on": "OVCAR-5 ovarian"}, "M14 melanoma": {"tested_on": "M14 melanoma"}, "SNB-78 CNS": {"tested_on": "SNB-78 CNS"}, "MALME-3M melanoma": {"tested_on": "MALME-3M melanoma"}, "A498 renal": {"tested_on": "A498 renal"}, "SF-295 CNS": {"tested_on": "SF-295 CNS"}, "IGROV1 ovarian": {"tested_on": "IGROV1 ovarian"}, "DMS 114 small cell lung": {"tested_on": "DMS 114 small cell lung"}, "OVCAR-4 ovarian": {"tested_on": "OVCAR-4 ovarian"}, "KM20L2 colon": {"tested_on": "KM20L2 colon"}, "LXFL 529 NSCLC": {"tested_on": "LXFL 529 NSCLC"}, "SNB-75 CNS": {"tested_on": "SNB-75 CNS"}, "DLD-1 colon": {"tested_on": "DLD-1 colon"}, "HT29 colon": {"tested_on": "HT29 colon"}}, "note": "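48-hour exposure; five concentrations; linearly interpolated endpoints. The concentration for full growth arrest is given as TGI.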", "data": [{"smiles": "CN(C)Cc1cc(/C(=C(\\C#N)c2ccccc2)c2ccc(O)cc2)ccc1O", "values": [{"measurement": "TGI", "setting": "RXF-631 renal", "result": 37.2, "unit": "µM"}, {"measurement": "TGI", "setting": "SR leukemia", "result": 31.8, "unit": "µM"}, {"measurement": "TGI", "setting": "NCI-H226 lung", "result": 56.9, "unit": "µM"}, {"measurement": "TGI", "setting": "NCI-H522 lung", "result": 26.1, "unit": "µM"}, {"measurement": "TGI", "setting": "786-0 renal", "result": 35.6, "unit": "µM"}, {"measurement": "TGI", "setting": "K-562 leukemia", "result": 40.4, "unit": "µM"}, {"measurement": "TGI", "setting": "HOP-62 NSCLC", "result": 33.9, "unit": "µM"}, {"measurement": "TGI", "setting": "UO-31 renal", "result": 60.2, "unit": "µM"}, {"measurement": "TGI", "setting": "SNB-19 CNS", "result": "> 100", "unit": "µM"}, {"measurement": "TGI", "setting": "SN12C renal", "result": 59.6, "unit": "µM"}, {"measurement": "TGI", "setting": "UACC-257 melanoma", "result": 29.9, "unit": "µM"}, {"measurement": "TGI", "setting": "ACHN renal", "result": 32.4, "unit": "µM"}, {"measurement": "TGI", "setting": "NCI-H23 lung", "result": 52.5, "unit": "µM"}, {"measurement": "TGI", "setting": "U251 CNS", "result": 50.1, "unit": "µM"}, {"measurement": "TGI", "setting": "HCT-116 colon", "result": 25.2, "unit": "µM"}, {"measurement": "TGI", "setting": "MOLT-4 leukemia", "result": 39.3, "unit": "µM"}, {"measurement": "TGI", "setting": "KM12 colon", "result": 61, "unit": "µM"}, {"measurement": "TGI", "setting": "RPMI-8226 leukemia", "result": 46.4, "unit": "µM"}, {"measurement": "TGI", "setting": "SW-620 colon", "result": 73.7, "unit": "µM"}, {"measurement": "TGI", "setting": "SF-268 CNS", "result": 60.3, "unit": "µM"}, {"measurement": "TGI", "setting": "HCC-2998 colon", "result": 32.4, "unit": "µM"}, {"measurement": "TGI", "setting": "SK-MEL-5 melanoma", "result": 28.9, "unit": "µM"}, {"measurement": "TGI", "setting": "CAKI-1 renal", "result": 85.5, "unit": "µM"}, {"measurement": "TGI", "setting": "OVCAR-8 ovarian", "result": 48.5, "unit": "µM"}, {"measurement": "TGI", "setting": "SK-MEL-28 melanoma", "result": 26.8, "unit": "µM"}, {"measurement": "TGI", "setting": "SK-OV-3 ovarian", "result": 87.5, "unit": "µM"}, {"measurement": "TGI", "setting": "A549 NSCLC", "result": "> 100", "unit": "µM"}, {"measurement": "TGI", "setting": "LOX IMVI melanoma", "result": 26.8, "unit": "µM"}, {"measurement": "TGI", "setting": "RXF 393 renal", "result": 14, "unit": "µM"}, {"measurement": "TGI", "setting": "SK-MEL-2 melanoma", "result": 33.9, "unit": "µM"}, {"measurement": "TGI", "setting": "M19-MEL melanoma", "result": 31.2, "unit": "µM"}, {"measurement": "TGI", "setting": "DMS 273 small cell lung", "result": 36.4, "unit": "µM"}, {"measurement": "TGI", "setting": "HCT-15 colon", "result": 96.5, "unit": "µM"}, {"measurement": "TGI", "setting": "COLO 205 colon", "result": 31.9, "unit": "µM"}, {"measurement": "TGI", "setting": "HOP-18 NSCLC", "result": 66.5, "unit": "µM"}, {"measurement": "TGI", "setting": "EKVX NSCLC", "result": "> 100", "unit": "µM"}, {"measurement": "TGI", "setting": "HOP-92 NSCLC", "result": 52.4, "unit": "µM"}, {"measurement": "TGI", "setting": "TK-10 renal", "result": 79.4, "unit": "µM"}, {"measurement": "TGI", "setting": "NCI-H460 lung", "result": 48.9, "unit": "µM"}, {"measurement": "TGI", "setting": "UACC-62 melanoma", "result": 33.4, "unit": "µM"}, {"measurement": "TGI", "setting": "OVCAR-3 ovarian", "result": 50.3, "unit": "µM"}, {"measurement": "TGI", "setting": "CCRF-CEM leukemia", "result": 45.5, "unit": "µM"}, {"measurement": "TGI", "setting": "OVCAR-5 ovarian", "result": 72.4, "unit": "µM"}, {"measurement": "TGI", "setting": "M14 melanoma", "result": 23.1, "unit": "µM"}, {"measurement": "TGI", "setting": "SNB-78 CNS", "result": 94.9, "unit": "µM"}, {"measurement": "TGI", "setting": "MALME-3M melanoma", "result": 29.8, "unit": "µM"}, {"measurement": "TGI", "setting": "A498 renal", "result": "> 100", "unit": "µM"}, {"measurement": "TGI", "setting": "SF-295 CNS", "result": 49.7, "unit": "µM"}, {"measurement": "TGI", "setting": "IGROV1 ovarian", "result": 99.5, "unit": "µM"}, {"measurement": "TGI", "setting": "DMS 114 small cell lung", "result": 29.4, "unit": "µM"}, {"measurement": "TGI", "setting": "OVCAR-4 ovarian", "result": 70.5, "unit": "µM"}, {"measurement": "TGI", "setting": "KM20L2 colon", "result": "> 100", "unit": "µM"}, {"measurement": "TGI", "setting": "LXFL 529 NSCLC", "result": 34.7, "unit": "µM"}, {"measurement": "TGI", "setting": "SNB-75 CNS", "result": 63.6, "unit": "µM"}, {"measurement": "TGI", "setting": "DLD-1 colon", "result": 86.1, "unit": "µM"}, {"measurement": "TGI", "setting": "HT29 colon", "result": 44.8, "unit": "µM"}]}]}
